Each structure is given as a SMILES string.

The values that follow come from the METLIN SMRT retention time set (Domingo-Almenara et al. 2019).

The series can be described thus: gradient 5% acetonitrile 3 min, to 50% in 2 min, to 85% in 15 min, held 3 min, 100 µL/min. Particulars: column: Zorbax Extend-C18 2.1 x 50 mm; eluents: water / acetonitrile, 0.1% formic acid. The essentials:
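Mixtures of ~100 pure standards were chromatographed on a Zorbax Extend-C18 column (2.1 × 50 mm, 1.8 μm) at 100 μL/min using water and acetonitrile, each with 0.1% formic acid. Detection used a quadrupole time-of-flight mass spectrometer in positive and negative ionization mode, and data collection spanned 3 months. Retention time was obtained from adduct peaks picked computationally and each checked manually.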
`COc1ccc(-c2ccc3nc(N4CCC(C(=O)O)CC4)sc3n2)cc1`: the RP-LC retention time came out at 825 s.
Under `CC(C)NC(=O)C1CCCN(C(=O)Nc2ccc(NC(=O)Nc3ccccc3)cc2)C1` (centres undefined) stands 720 s; under `COc1ccc(CNC(=O)C2(C)CCN(C(=O)Nc3ccc(F)cc3)CC2)cc1`, 761 s.
Under `O=C([C@@H]1C[C@H](F)CN1S(=O)(=O)Cc1cccc(Cl)c1)N1CCc2ccccc2C1` stands 1000 s; under `O=C(NCc1ccc2c(c1)OCO2)C1=C2CCCN2c2ccccc2S1(=O)=O`, 805 s.
The same measure for `CCCNC(=O)C1CCCN(c2ccc(SCC(=O)Nc3ccc(F)cc3)nn2)C1` (centres undefined): 668 s; for `Cc1c2cnn(CC(=O)NCc3ccco3)c(=O)c2c(C)n1Cc1cccc(Cl)c1`: 862 s; for `CCOC(=O)c1cccc(Nc2ncccc2S(N)(=O)=O)c1`: 854 s.
Turning to `COc1ccc(/C=C/c2cc(O)cc(OC3OC(CO)C(O)C(O)C3O)c2)cc1O` (centres undefined), the RP-LC retention time came to 612 s.
Under `Cc1ncc([N+](=O)[O-])n1CCOC(N)=O` stands 624 s.
Under `CCn1ccc2sc(C)c(C(=O)O)c2c1=O` stands 702 s; under `Cc1ccc(CNC(=O)Cn2nc3c(Oc4cc(C)cc(C)c4)nccn3c2=O)cc1`, 943 s.
The compound `O=C(NCc1ccc(F)cc1Cl)C1CCN(c2cc(Oc3ccccc3)ncn2)CC1` registered an RP-LC retention time of 863 s.
`COc1ccc(Cl)cc1NC(=O)NCC1CN(CC2CC2)CC12CCCCC2` (centres undefined) gave an RP-LC retention time of 786 s.
The same measure for `COC(=O)c1cc(C2CC2)nc2c1c(=O)n(Cc1ccccc1Cl)c(=O)n2C`: 1130 s; for `CCOC(=O)C1CCCN(C(=O)Cc2cc(-c3ccc(F)cc3)on2)C1` (centres undefined): 820 s; for `Cc1nn(-c2cc(N3CCCCC3)ncn2)c(C)c1CCC(=O)NC(C)CCc1ccco1` (centres undefined): 941 s.
The same measure for `Cc1cc(C)c2c(=O)n(Cc3nc(-c4ccccc4)oc3C)c(=O)n(Cc3ccco3)c2n1`: 1380 s; for `COCCn1cc(C(=O)N2CCc3ccccc32)c2nn(-c3ccccc3)c(=O)c-2c1`: 789 s.
Under `O=C1/C(=C\c2ccc(O)c(O)c2)Oc2c1ccc(O[C@@H]1O[C@H](CO)[C@@H](O)[C@H](O)[C@H]1O)c2O` stands 638 s; under `O=S(=O)(c1ccc2c(c1)CCCC2)N1CCCC1c1nc(-c2ccc(Cl)cc2)no1` (centres undefined), 1370 s.
Compound `Cn1cc(C(=O)NCCCc2ccccc2)c(S(=O)(=O)N2CCSCC2)n1` had an RP-LC retention time of 944 s.
Under `CNC(=O)C1CCN(Cc2cc3ccccc3n2Cc2cccc(Cl)c2)CC1` stands 683 s; under `COc1ccc2c(c1)-c1nc(NC(=O)c3ccc(Cl)cc3)sc1CC2`, 1180 s.
`Cc1ccc(NC(=O)Cn2c(C)nc3onc(C)c3c2=O)c(Cl)c1` registered an RP-LC retention time of 835 s.
`Cc1nc(Cn2cccc2C(=O)Nc2ccc(Cl)cc2)no1` returned an RP-LC retention time of 899 s.
Under `CCc1cccc(C)c1NC(=O)Cn1c(C)nc2c(sc3nc(-c4ccccc4)ccc32)c1=O` stands 1110 s; under `CCN1C(=O)C2(CCN(S(=O)(=O)c3cc(C)ccc3C)CC2)c2ccccc21`, 1110 s.
Under `CCOC(=O)c1ccc(NC(=O)c2cc3c(=O)n(C)c4ccccc4n3n2)cc1` stands 981 s; under `Cc1ccc2c(c1)c(=O)c1c(n2C)CCN(CC(=O)Nc2ccccc2Cl)C1`, 640 s; under `Cc1nnc2ccc(C(=O)NC(C)C)cn12`, 590 s.
With `Cc1ccc2[nH]cc(CCNC(=O)c3ccc(Cl)cc3Cl)c2c1`, the RP-LC retention time was 957 s.
The compound `CCn1cc(CCNC(=O)c2ccccc2C(F)(F)F)c2cccnc21` returned an RP-LC retention time of 740 s.
`O=C(NCc1cccnc1)C1(CCO)CCN(c2ncccn2)C1` (centres undefined) had an RP-LC retention time of 515 s.
The same measure for `CC1CCN(CCNC(=O)c2nnc(-c3ccc(S(=O)(=O)N4CCOCC4)cc3)o2)CC1`: 629 s.
The compound `CNC(=O)c1sc(-c2ccccc2F)nc1C` registered an RP-LC retention time of 772 s.
The same measure for `CCc1noc(NC(C)=O)c1-c1ccc(C)c(S(=O)(=O)N2CCc3ccccc32)c1`: 920 s; for `Cc1cc(N2CCN(S(=O)(=O)c3ccc4cccc5c4c3CC5)CC2)nc(NC2CCCCC2)n1`: 955 s; for `CCc1ccc(Nc2nc(C(=O)NCCc3ccco3)nc3ccccc23)cc1`: 855 s.
In turn, `O=C(O)c1ccc2c(c1)C(=O)N(Nc1ccccc1[N+](=O)[O-])C2=O` yielded an RP-LC retention time of 953 s.
`COc1ccc(-n2nnc(C(=O)O)c2-c2ccccc2)cc1OC` had an RP-LC retention time of 691 s.
Under `Cc1cc(F)ccc1NC(=O)C1CCN(S(=O)(=O)c2c(C)[nH]c(C)c2C(=O)N2CCCC2)CC1` stands 691 s.
Compound `O=C(CSc1nc2ccccc2s1)OCc1cc(-c2ccco2)on1` yielded an RP-LC retention time of 1010 s.
Under `Cc1ccc(-n2nc(C(=O)N3CCN(c4ncccn4)CC3)c3ncn(C)c(=O)c32)cc1` stands 726 s; under `CNC(=O)C1CCN(Cc2noc(-c3ccc(F)cc3)n2)CC1`, 581 s; under `O=C(NCc1ccc(Br)cc1)c1sc2ncccc2c1-n1cccc1`, 1090 s.
Under `COc1ccc(-c2nc3ncccn3c2Nc2c(C)cccc2C)cc1` stands 765 s; under `CN1C(=O)c2cc(C(=O)NCc3ccc(F)cc3)nn2CC1(C)C(=O)NC1CCCCC1` (centres undefined), 791 s.
Compound `Cc1noc(C)c1CCC(=O)N1CCC2(CC1)CC(CCOCC1CC1)CCO2` (centres undefined) registered an RP-LC retention time of 831 s.
Under `O=S(=O)(c1cccc(F)c1)N1CC(n2cc(COc3ccc(F)cc3)nn2)C1` stands 923 s.
Consider `Cc1nccn1CCNC(=O)C(=O)Nc1ccc2c(c1)N(C(=O)C(C)C)CCC2`, for which the RP-LC retention time came out at 571 s.
Consider `Cc1ccc(Cl)cc1N1CCN(c2ccc3cc(S(=O)(=O)N4CCCCC4C)ccc3n2)CC1` (centres undefined), for which the RP-LC retention time was 1420 s.
The same measure for `CCCCNC(=O)C1CCCN(C(=O)c2[nH]c(C)c(C(=O)OC(C)C)c2C)C1` (centres undefined): 754 s.
For the compound `Cc1nc(-c2cc(S(=O)(=O)NC(C)Cc3ccco3)c(C)s2)sc1C` (centres undefined), the RP-LC retention time was 1060 s.
`Cn1cc(C(=O)C(=O)N[C@H]2CN3CCC2CC3)c2ccccc21` came in with an RP-LC retention time of 672 s.
The same measure for `CCCn1ccc2sc(C)c(C(=O)NCc3ccc(SC)cc3)c2c1=O`: 919 s; for `COCCOC1CCOC2(CCN(S(=O)(=O)c3cccc(OC)c3)CC2)C1` (centres undefined): 818 s; for `Cc1ccccc1S(=O)(=O)N1CCC2(CC1)NCCN=C2NCc1cccc(F)c1`: 712 s.
For `COCc1nc2cccnc2n1C1CCN(C(=O)Nc2ccc(OC)c(OC)c2)CC1`, the RP-LC retention time is 638 s.
Under `O=C(NCC1CCCO1)C1COC2(CCN(C(=O)c3ccccc3F)CC2)N1C(=O)c1ccccc1` (centres undefined) stands 673 s; under `COC(=O)c1ccc(NC(=O)CSc2ncnc3c2nnn3C)cc1`, 683 s.
Consider `Cc1cc(C(=O)N2CCC(c3cc(N)on3)CC2)no1`, for which the RP-LC retention time came out at 625 s.
The same measure for `COCCn1cc2c3c(cccc31)CN(C(=O)Nc1cccc(Cl)c1)CC2`: 981 s; for `O=C(NC1CCCC1)C1CCCN(C(=O)c2cc(-c3ccccn3)n[nH]2)C1` (centres undefined): 616 s.
`CCN(CC)C(=O)c1ccc2c(c1)N(CC(=O)Nc1ccc3c(c1)OCO3)C(=O)C1CCCCN21` (centres undefined): the RP-LC retention time stood at 808 s.
The same measure for `CC1CCCN(CCCNC(=O)c2cccc3c2SCCC3=O)C1` (centres undefined): 590 s.
Under `Cc1ccccc1CNC(=O)C1(C)CCCN(C(=O)Nc2ccc3c(c2)OCCO3)C1` (centres undefined) stands 846 s.
`C=CCN1C(=O)COc2ccc(-c3csc(NC(=O)CC)n3)cc21`: the RP-LC retention time came out at 837 s.
In turn, `O=C(NCc1ccsc1)C(=O)Nc1ccon1` came in with an RP-LC retention time of 665 s.
The same measure for `Cc1ccc(C(=O)N2CC(Cn3c(C)cnc3C3CCOCC3)C2)s1`: 600 s.
Under `Cc1ccc(-c2nc3ccccn3c2Nc2ccc3c(c2)OCCO3)cc1` stands 690 s; under `COc1ccc(-c2noc(C3CC(=O)N(c4cc(Cl)ccc4OC)C3)n2)c(OC)c1` (centres undefined), 1010 s; under `O=C(NCCCN1CCCC1=O)C1=C2CCCN2c2ccc(F)cc2S1(=O)=O`, 650 s.
The same measure for `NC(=O)C1CCN(C(=O)c2ccc(Cl)c(Cl)c2)CC1`: 656 s.
As to `COc1cc2nc(C(=O)N3CCC(C)CC3)cc(Nc3cccc(SC)c3)c2cc1OC`, the RP-LC retention time was determined as 776 s.
Under `Cc1ccc(-c2nc(C)cc(OCC(=O)NCc3ccc4c(c3)OCO4)n2)cc1` stands 919 s; under `Cc1ccc(-c2noc(C3CCCN3C(=O)c3ccc(C(C)(C)C)cc3)n2)cc1` (centres undefined), 1280 s; under `O=C(Nc1ccc(Cn2cncn2)cc1)c1ccccn1`, 654 s.
The same measure for `Cc1cc(C2CCCN2C(=O)Cc2ccccc2F)no1` (centres undefined): 723 s.
